# Laboratory results: patent publication US5547971A, “Use of leflunomide for inhibiting interleukin 8” (priority 1993, dated 1996)
# What was measured:
# [1] = tested on: IL-8; assay: IL-8 synthesis and liberation induced by lipopolysaccharide in isolated human blood mononuclear cells (IL-8 in the supernatant, sandwich enzyme immuno test); type: cell-based; conditions: for activity at 50 µM / activity at 100 µM: Homo sapiens, control without substance set at 100%, 37° C., 1 h, lipopolysaccharide-induced, read-out: IL-8 in the supernatant % +/- standard deviation; for activity at 50 µM: concentration 0.05 mmol/l; for activity at 100 µM: concentration 0.1 mmol/l; for effect on the IL-8 level / effect on the synthesis and liberation of cytokines from human blood cells: in words; for effect on the IL-8 level: experiments in Tab. 1
# Protocol: 10 ml of freshly prepared human citrate blood were carefully underlaid with 15 ml of Lymphoprep^(R) (Molter GmbH, Heidelberg) and then centrifuged at 400 ×g for 40 min. at 20° C. The cell fraction which was visible as a white ring at the phase boundary was removed with the aid of a syringe, diluted 1:1 (v/v) with PM-16 buffer (from Serva Feinbiochemica GmbH & Co. KG, Heidelberg) and then centrifuged, as above, for 10 min. […] Using a cell counter (type IT, from Coulter Diagnostics, Krefeld), the cell suspension, which is composed of about 90% lymphocytes and 10% monocytes, was adjusted to about 5 million cells/mi. Cell viability was monitored before and after the inhibition experiments using the known lactate dehydrogenase method.
# The synthesis and liberation of cellular IL-8 was induced by adding a solution of 500 ng of lipopolysaccharide (Salmonella abortus equi, Sigma GmbH, Deisenhofen) in 0.01 ml of dimethyl sulfoxide/water (1:10, v/v) to 0.48 ml of the above-described cell fraction. At the same time, a solution of leflunomide or leflunomide metabolite in 0.01 ml of dimethyl sulfoxide (for the final concentration in each case, see Tab. 1) was added to the cell fraction and the mixture was left at 37° C. for 1h in a commercially available incubator. After cooling down to 0° C., the samples were centrifuged for 1 min. in a bench centrifuge and in each case 0.025 ml aliquots of the supernatant were examined for their […] content using a "sandwich" enzyme immuno test kit (from Biermann GmbH, Bad Nauheim) in accordance with the manufacturer's instructions. The control values were determined without the addition of leflunomide or its metabolites and set at 100%.
# [2] = tested on: mononuclear cells; assay: Metabolism of leflunomide in the mononuclear cell test sample (HPLC); type: in vitro ADME, human; conditions: in words; under the experimental conditions employed
# [3] = as above; type: in vitro ADME, human; conditions: blood mononuclear cells; under the conditions employed; human mononuclear cell fraction; read-out: half life of metabolism of leflunomide to its metabolites (converted)
Compound,activity at 50 µM [1],activity at 100 µM [1],effect on the IL-8 level [1],effect on the synthesis and liberation of cytokines from human blood cells [1],metabolism of leflunomide [2],half-life [3]
"Cc1oncc1C(=O)Nc1ccc(C(F)(F)F)cc1 [Leflunomide, N-(4-trifluoromethylphenyl)-5-methylisoxazole-4-carboxamide]",83%,61 ± 11%,IL-8 level is clearly lowered,strong inhibitory effect,no appreciable metabolism,~10 h
"C/C(O)=C(\C#N)C(=O)Nc1ccc(C(F)(F)F)cc1 [Leflunomide metabolite, N-(4-trifluoromethylphenyl)-2-cyano-3-hydroxycrotonamide]",97%,99%,practically no effect on the IL-8 level,does not exhibit this advantageous effect,–,–
